≈ marks a conversion by molar mass, not a printed value.
Legend:
[1] = tested on: E. coli 2252 (COL-resistant); test: Antibacterial MIC/MBC (broth microdilution); type: cell-based, Escherichia coli; conditions: Escherichia coli, E. coli 2252 (COL-resistant); for MBC: read-out: MBC; for MIC: read-out: MIC
Summary of the method: (§1)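 Visible growth inhibition after 20 h at 37 degrees C defines the MIC, with compounds tested at 0.062-64 μg/mL in Mueller-Hinton broth 2 against about 5×10^5 CFU/mL. Bactericidal endpoint: 99.9% reduction of the starting inoculum on MH agar subculture.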

E. coli SA/2 (ESBL) = test: Antibacterial MIC/MBC (broth microdilution); type: cell-based, Escherichia coli; conditions: Escherichia coli
Summary of the method: as §1

P. aeruginosa 33b (PDR) = test: Antibacterial MIC/MBC (broth microdilution); type: cell-based, Pseudomonas aeruginosa; conditions: Pseudomonas aeruginosa, P. aeruginosa 33b (PDR); for MBC: read-out: MBC; for MIC: read-out: MIC
Summary of the method: as §1

[2] = tested on: Acinetobacter baumannii ATCC 19606; test: Antibacterial MIC/MBC (broth microdilution); type: cell-based; conditions: for antibacterial activity (in words): A. baumannii ATCC 19606; for MBC / MIC: ATCC19606, Acinetobacter baumannii ATCC 19606; for MBC: read-out: MBC; for MIC: read-out: MIC
Summary of the method: as §1

[3] = tested on: Listonella anguilarum ATCC 1924; test: Antibacterial MIC/MBC (broth microdilution); type: cell-based; conditions: for antibacterial activity (in words): Listonella anguilarum; for MBC / MIC: Listonella anguilarum ATCC 1924; for MBC: read-out: MBC; for MIC: read-out: MIC
Summary of the method: as §1

[4] = tested on: Staphylococcus aureus ATCC 29213; test: Antibacterial MIC/MBC (broth microdilution); type: cell-based; conditions: for MBC: ATCC29213, read-out: MBC; for MIC: ATCC29213, read-out: MIC
Summary of the method: as §1

[5] = tested on: Yersinia ruckeri ATCC 29473; test: Antibacterial MIC/MBC (broth microdilution); type: cell-based; conditions: for MBC: ATCC29473, read-out: MBC; for MIC: ATCC29473, read-out: MIC
Summary of the method: as §1

C. jejuni 4432 = test: Antibacterial MIC/MBC (broth microdilution); type: cell-based, Campylobacter jejuni; conditions: Campylobacter jejuni; for MBC: read-out: MBC; for MIC: read-out: MIC
C. jejuni 4433 = test: Antibacterial MIC/MBC (broth microdilution); type: cell-based, Campylobacter jejuni; conditions: Campylobacter jejuni; for MBC: read-out: MBC; for MIC: read-out: MIC
C. jejuni 4448 = test: Antibacterial MIC/MBC (broth microdilution); type: cell-based, Campylobacter jejuni; conditions: Campylobacter jejuni; for MBC: read-out: MBC; for MIC: read-out: MIC
C. jejuni P5/4 = test: Antibacterial MIC/MBC (broth microdilution); type: cell-based, Campylobacter jejuni; conditions: Campylobacter jejuni; for MBC: read-out: MBC; for MIC: read-out: MIC
[6] = tested on: Tenacibaculum maritimum ATCC 43397; test: Antibacterial disk diffusion; type: cell-based; conditions: Tenacibaculum maritimum ATCC 43397, footnote *
S. aureus 66/1 (MRSA) = test: Antibacterial MIC/MBC (broth microdilution); type: cell-based, Staphylococcus aureus; conditions: Staphylococcus aureus; for MBC: read-out: MBC; for MIC: read-out: MIC
Summary of the method: as §1

E. faecalis B3/101 (VRE) = test: Antibacterial MIC/MBC (broth microdilution); type: cell-based, Enterococcus faecalis; conditions: for antibacterial activity (in words): E. faecalis B3/101; for MBC / MIC: Enterococcus faecalis, E. faecalis B3/101 (VRE); for MBC: read-out: MBC; for MIC: read-out: MIC
Summary of the method: as §1

[7] = tested on: Enterococcuss faecalis ATCC 29212; test: Antibacterial MIC/MBC (broth microdilution); type: cell-based, Enterococcus faecalis; conditions: for antibacterial activity (in words): E. faecalis ATCC 29212; for MBC / MIC: Enterococcus faecalis, ATCC29212, Enterococcuss faecalis ATCC 29212; for MBC: read-out: MBC; for MIC: read-out: MIC
Summary of the method: as §1

[8] = tested on: Streptococcuss pyogenes ATCC 19615; test: Antibacterial MIC/MBC (broth microdilution); type: cell-based, Streptococcus pyogenes; conditions: Streptococcus pyogenes, ATCC19615, Streptococcuss pyogenes ATCC 19615; for MBC: read-out: MBC; for MIC: read-out: MIC
Summary of the method: as §1

| SMILES | MBC [1] [µg/mL] | MIC [1] [µg/mL] | MBC (E. coli SA/2 (ESBL)) [µg/mL] | MIC (E. coli SA/2 (ESBL)) [µg/mL] | MBC (P. aeruginosa 33b (PDR)) [µg/mL] | MIC (P. aeruginosa 33b (PDR)) [µg/mL] | antibacterial activity (in words) [2] | MBC [2] [µg/mL] | MIC [2] [µg/mL] | antibacterial activity (in words) [3] | MBC [3] [µg/mL] | MIC [3] [µg/mL] | MBC [4] [µg/mL] | MIC [4] [µg/mL] | MBC [5] [µg/mL] | MIC [5] [µg/mL] | MBC (C. jejuni 4432) [µg/mL] | MIC (C. jejuni 4432) [µg/mL] | MBC (C. jejuni 4433) [µg/mL] | MIC (C. jejuni 4433) [µg/mL] | also measured |
| --- | --- | --- | --- | --- | --- | --- | --- | --- | --- | --- | --- | --- | --- | --- | --- | --- | --- | --- | --- | --- | --- |
| C[C@H](CCC(=O)N1CCN(C(=O)CC[C@H](C)[C@@H]2CC[C@@H]3[C@H]4CC[C@H]5C[C@@H](O)CC[C@@]5(C)[C@@H]4C[C@@H](O)[C@]32C)CC1)[C@H]1CC[C@H]2[C@@H]3CC[C@@H]4C[C@H](O)CC[C@]4(C)[C@H]3C[C@H](O)[C@]12C [Compound 4, (R)-4-((3R,5R,8R,9S,10S,12S,13R,14S,17R)-3,12-dihydroxy-10,13-dimethylhexadecahydro-1H-cyclopenta[a]phenanthren-17-yl)-1-(4-((S)-4-((3S,5S,8S,9R,10R,12R,13S,14R,17S)-3,12-dihydroxy-10,13-dimethylhexadecahydro-1H-cyclopenta[a]phenanthren-17-yl)pentanoyl)piperazin-1-yl) pentan-1-one] | > 64 | > 64 | > 64 | > 64 | > 64 | > 64 | displayed an inhibitory effect | 64 (≈ 76.6 µM) | 64 (≈ 76.6 µM) | active | 32 (≈ 38.3 µM) | 32 (≈ 38.3 µM) | > 64 | 64 (≈ 76.6 µM) | 64 (≈ 76.6 µM) | 64 (≈ 76.6 µM) | > 64 | > 64 | > 64 | > 64 | antibacterial activity (in words) [5]: displayed antibacterial activity; MBC (C. jejuni 4448): > 64 µg/mL; MIC (C. jejuni 4448): > 64 µg/mL; MBC (C. jejuni P5/4): > 64 µg/mL; MIC (C. jejuni P5/4): > 64 µg/mL; Inhibition zone diameter (disk diffusion) [6]: 10 mm; MBC (S. aureus 66/1 (MRSA)): > 64 µg/mL; MIC (S. aureus 66/1 (MRSA)): 64 µg/mL (≈ 76.6 µM); antibacterial activity (in words) (E. faecalis B3/101 (VRE)): displayed the same effect; MBC (E. faecalis B3/101 (VRE)): > 64 µg/mL; MIC (E. faecalis B3/101 (VRE)): 64 µg/mL (≈ 76.6 µM); antibacterial activity (in words) [7]: exhibited antimicrobial activity; MBC [7]: 64 µg/mL (≈ 76.6 µM); MIC [7]: 64 µg/mL (≈ 76.6 µM); MBC [8]: > 64 µg/mL; MIC [8]: > 64 µg/mL |
| C[C@H](CCC(=O)N1CCNCC1)[C@H]1CC[C@H]2[C@@H]3CC[C@@H]4C[C@H](O)CC[C@]4(C)[C@H]3C[C@H](O)[C@]12C [Compound 9, (R)-4-((3R,5R,8R,9S,10S,12S,13R,14S,17R)-3,12-dihydroxy-10,13-dimethylhexadecahydro-1H-cyclopenta[a]phenanthren-17-yl)-1-(piperazin-1-yl) pentan-1-one] | > 64 | > 64 | > 64 | > 64 | > 64 | > 64 | displayed an inhibitory effect | 64 (≈ 139 µM) | 64 (≈ 139 µM) | active | 64 (≈ 139 µM) | 64 (≈ 139 µM) | 64 (≈ 139 µM) | 64 (≈ 139 µM) | > 64 | > 64 | > 64 | > 64 | > 64 | > 64 | MBC (C. jejuni 4448): > 64 µg/mL; MIC (C. jejuni 4448): > 64 µg/mL; MBC (C. jejuni P5/4): > 64 µg/mL; MIC (C. jejuni P5/4): > 64 µg/mL; Inhibition zone diameter (disk diffusion) [6]: 9 mm; MBC (S. aureus 66/1 (MRSA)): 64 µg/mL (≈ 139 µM); MIC (S. aureus 66/1 (MRSA)): 64 µg/mL (≈ 139 µM); antibacterial activity (in words) (E. faecalis B3/101 (VRE)): displayed the same effect; MBC (E. faecalis B3/101 (VRE)): > 64 µg/mL; MIC (E. faecalis B3/101 (VRE)): 32 µg/mL (≈ 69.5 µM); antibacterial activity (in words) [7]: exhibited antimicrobial activity; MBC [7]: 64 µg/mL (≈ 139 µM); MIC [7]: 64 µg/mL (≈ 139 µM); MBC [8]: > 64 µg/mL; MIC [8]: > 64 µg/mL |
